Data reported in ChEMBL document CHEMBL1201862, “PubChem BioAssay data set” (2004).
Activity calls are given as the source filed them.

Tests used:
[1] = target: T1, Replicative DNA helicase DnaB (Mycobacterium tuberculosis, UniProt P9WMR3); assay: DnaB intein splicing inhibitors, dose response, biochemical, cell-free fluorescence (AID 449749); type: functional
T1 sequence (P9WMR3 whole entry): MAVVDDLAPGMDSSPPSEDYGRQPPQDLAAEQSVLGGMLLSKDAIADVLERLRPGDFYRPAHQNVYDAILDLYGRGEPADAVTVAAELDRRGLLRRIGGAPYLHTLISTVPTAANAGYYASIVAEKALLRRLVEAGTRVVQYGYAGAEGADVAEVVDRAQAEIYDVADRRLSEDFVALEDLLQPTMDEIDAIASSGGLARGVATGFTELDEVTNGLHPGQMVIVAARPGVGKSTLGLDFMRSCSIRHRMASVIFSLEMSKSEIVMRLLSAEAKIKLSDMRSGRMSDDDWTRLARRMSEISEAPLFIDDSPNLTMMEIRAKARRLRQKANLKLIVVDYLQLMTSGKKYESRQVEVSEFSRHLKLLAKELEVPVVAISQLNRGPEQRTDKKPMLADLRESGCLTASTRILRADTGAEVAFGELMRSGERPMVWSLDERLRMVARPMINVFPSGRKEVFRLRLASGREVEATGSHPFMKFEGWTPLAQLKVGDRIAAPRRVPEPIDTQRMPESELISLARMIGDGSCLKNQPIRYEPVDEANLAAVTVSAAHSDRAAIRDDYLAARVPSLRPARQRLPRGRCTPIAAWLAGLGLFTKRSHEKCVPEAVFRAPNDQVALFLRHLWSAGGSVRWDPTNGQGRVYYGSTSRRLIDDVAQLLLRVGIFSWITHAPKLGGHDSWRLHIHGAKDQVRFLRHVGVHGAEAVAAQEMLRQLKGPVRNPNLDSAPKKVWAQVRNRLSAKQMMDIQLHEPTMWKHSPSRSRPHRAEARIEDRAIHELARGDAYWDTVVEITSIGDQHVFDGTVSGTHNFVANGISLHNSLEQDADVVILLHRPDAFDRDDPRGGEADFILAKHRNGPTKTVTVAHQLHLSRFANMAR

Protein RecA = target: T2, Protein RecA (Mycobacterium tuberculosis, UniProt P9WHJ3); assay: Fluorescence Cell-Free Homogeneous Dose Retest to Identify Inhibitors of RecA-Intein Splicing Activity. [Related pubchem assays (depositor defined):AID2097, AID2223, AID489010, AID492950]; type: functional
T2 sequence (P9WHJ3 whole entry): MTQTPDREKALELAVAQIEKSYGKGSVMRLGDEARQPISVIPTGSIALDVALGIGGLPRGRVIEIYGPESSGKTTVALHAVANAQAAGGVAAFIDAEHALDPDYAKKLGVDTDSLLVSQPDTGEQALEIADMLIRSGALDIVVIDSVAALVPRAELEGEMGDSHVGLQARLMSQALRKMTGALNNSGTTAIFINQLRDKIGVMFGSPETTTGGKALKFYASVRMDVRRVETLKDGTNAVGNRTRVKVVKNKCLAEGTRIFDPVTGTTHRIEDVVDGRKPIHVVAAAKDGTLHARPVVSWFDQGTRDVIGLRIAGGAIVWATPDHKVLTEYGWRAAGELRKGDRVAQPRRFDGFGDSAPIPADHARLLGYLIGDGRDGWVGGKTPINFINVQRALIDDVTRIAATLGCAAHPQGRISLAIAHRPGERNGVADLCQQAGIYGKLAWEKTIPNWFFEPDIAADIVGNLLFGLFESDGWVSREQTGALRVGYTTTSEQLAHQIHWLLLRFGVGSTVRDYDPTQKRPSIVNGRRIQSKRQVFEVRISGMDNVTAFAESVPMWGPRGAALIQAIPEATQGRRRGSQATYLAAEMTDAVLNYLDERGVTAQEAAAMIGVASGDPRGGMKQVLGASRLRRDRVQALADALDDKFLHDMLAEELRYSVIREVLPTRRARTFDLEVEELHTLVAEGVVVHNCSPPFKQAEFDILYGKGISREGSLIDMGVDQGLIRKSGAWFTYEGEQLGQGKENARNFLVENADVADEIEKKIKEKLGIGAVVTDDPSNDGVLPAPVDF

H9c2 = assay: cells; type: functional, cell-based; details: Rattus norvegicus, H9c2, Myocardium;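 further: confirmatory concentration-response retest of ultra-high-throughput screening hits for modulation of myocardial damage; cell death induced by hydrogen peroxide oxidative stress; compound pretreatment for 60 min then peroxide exposure for 2 h; potency is for protecting the cells against peroxide damage rather than for killing them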
[2] = target: T3, Corticotropin-releasing factor receptor 2/Corticotropin-releasing factor-binding protein (Homo sapiens, UniProt P24387+Q13324); assay: Dose Response confirmation of uHTS hits for small molecule antagonists of the CRF-binding protein and CRF-R2 receptor complex.; type: functional; details: read-out: IC50_Mean
T3 sequence (Q13324 whole entry): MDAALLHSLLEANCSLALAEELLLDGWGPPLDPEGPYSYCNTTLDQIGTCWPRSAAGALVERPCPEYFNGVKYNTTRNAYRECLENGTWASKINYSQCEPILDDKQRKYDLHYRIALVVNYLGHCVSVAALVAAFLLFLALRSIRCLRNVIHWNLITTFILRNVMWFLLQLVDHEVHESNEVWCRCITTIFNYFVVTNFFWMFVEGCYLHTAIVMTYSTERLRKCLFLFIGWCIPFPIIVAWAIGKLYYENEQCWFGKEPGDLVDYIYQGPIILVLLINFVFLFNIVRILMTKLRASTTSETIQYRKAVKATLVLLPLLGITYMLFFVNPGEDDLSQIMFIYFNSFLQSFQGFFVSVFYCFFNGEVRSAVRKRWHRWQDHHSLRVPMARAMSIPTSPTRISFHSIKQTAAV
T3 sequence (P24387 whole entry): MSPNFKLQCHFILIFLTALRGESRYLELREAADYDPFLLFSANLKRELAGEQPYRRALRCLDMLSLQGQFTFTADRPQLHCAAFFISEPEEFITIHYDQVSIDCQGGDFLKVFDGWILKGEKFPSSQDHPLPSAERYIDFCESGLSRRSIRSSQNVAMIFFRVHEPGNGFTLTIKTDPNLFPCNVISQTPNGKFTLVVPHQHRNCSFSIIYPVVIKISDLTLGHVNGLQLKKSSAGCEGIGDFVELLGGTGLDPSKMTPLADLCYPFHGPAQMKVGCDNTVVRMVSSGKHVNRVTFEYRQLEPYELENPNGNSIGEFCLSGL

[3] = target: T3, Corticotropin-releasing factor receptor 2/Corticotropin-releasing factor-binding protein; assay: activators of CRF receptor 2 with binding protein – uHTS hits, confirmation (AID 602473); type: functional; details: read-out: EC50_Mean
[4] = target: T4, Heat shock factor protein 1 (Mus musculus, UniProt P38532); assay: decrease of HSF1-responsive luciferase luminescence – cell-based, NIH3T3, dose retest, confirmation (AID 2382); type: functional;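 further: NIH3T3 fibroblasts with HSF1-driven luciferase reporter stressed by proteasome inhibitor MG132; luminescence from HSF1-driven luciferase expression after 8 hours of MG132 stress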
T4 sequence (P38532 whole entry): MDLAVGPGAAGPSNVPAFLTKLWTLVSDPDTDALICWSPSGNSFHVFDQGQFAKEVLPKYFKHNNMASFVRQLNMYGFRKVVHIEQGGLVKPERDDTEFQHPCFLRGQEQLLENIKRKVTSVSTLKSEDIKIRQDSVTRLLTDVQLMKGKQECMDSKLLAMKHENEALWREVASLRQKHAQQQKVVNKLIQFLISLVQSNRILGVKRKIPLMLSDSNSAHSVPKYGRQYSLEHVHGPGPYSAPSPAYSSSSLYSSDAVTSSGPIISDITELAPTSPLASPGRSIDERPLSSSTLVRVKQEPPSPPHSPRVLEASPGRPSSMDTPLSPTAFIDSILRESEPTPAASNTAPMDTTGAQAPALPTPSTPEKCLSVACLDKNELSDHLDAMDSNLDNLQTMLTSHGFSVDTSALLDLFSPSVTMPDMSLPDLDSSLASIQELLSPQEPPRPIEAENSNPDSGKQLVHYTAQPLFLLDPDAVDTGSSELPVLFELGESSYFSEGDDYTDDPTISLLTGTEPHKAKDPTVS

Paired box protein Pax-8 = Paired box protein Pax-8 (Homo sapiens, UniProt Q06710); assay: PAX8 transcriptional activity inhibition in RMG-I – RMG-I cells, luciferase, cherry-pick, dose response (AID 687027); type: functional, cell-based;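 further: luciferase reporter driven by Pax8 target thyroperoxidase promoter measured by SteadyGlo luminescence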
Sequence of Paired box protein Pax-8 (Q06710 whole entry): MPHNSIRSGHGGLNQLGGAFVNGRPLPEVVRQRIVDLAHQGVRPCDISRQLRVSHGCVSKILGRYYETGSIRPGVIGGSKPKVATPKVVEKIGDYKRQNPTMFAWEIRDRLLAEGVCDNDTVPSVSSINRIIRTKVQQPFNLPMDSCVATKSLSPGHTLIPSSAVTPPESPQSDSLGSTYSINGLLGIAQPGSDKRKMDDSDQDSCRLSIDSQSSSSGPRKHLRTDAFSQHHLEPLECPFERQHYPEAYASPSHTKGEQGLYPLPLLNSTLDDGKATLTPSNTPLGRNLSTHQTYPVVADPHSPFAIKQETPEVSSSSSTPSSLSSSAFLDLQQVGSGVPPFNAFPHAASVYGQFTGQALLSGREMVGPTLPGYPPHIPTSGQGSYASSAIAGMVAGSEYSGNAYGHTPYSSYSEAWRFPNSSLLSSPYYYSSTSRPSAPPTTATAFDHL

c1ccc(-c2ccc(C3CCCN3)cc2)cc1 (configuration not stated)
AC50 [1]: > 380 µM (inactive) | EC50 (Protein RecA): > 380 µM (inactive)

Cc1ccc(Nc2nc(N)nc(O)c2N=O)cc1
IC50 (H9c2): 12.1 µM (active)

COc1ccc(NC(=O)c2cc(-c3ccc(OC)c(OC)c3)nc3ccccc23)c(OC)c1
IC50 (H9c2): > 79 µM (inactive)

Clc1ccc(-c2nnc(Sc3nc4ccccc4o3)c3ccccc23)cc1
AC50 [1]: 1.58 µM (active) | EC50 (Protein RecA): 0.405 µM (active)

O=C(Nc1cccn(Cc2c(Cl)cccc2Cl)c1=O)c1c(Cl)cccc1Cl
IC50 [2]: 9.97 µM (active) | EC50 [3]: > 53 µM (inactive)

FC(F)(F)c1ccc2c(c1)N(CCCN1CCN(CCCl)CC1)c1ccccc1S2
AC50 [1]: 9.54 µM (active) | EC50 (Protein RecA): 3.6 µM (active)

Cn1c2c(c(=O)n(C)c1=O)C(c1cccc([N+](=O)[O-])c1)Nc1ccccc1O2 (configuration not stated)
IC50 (H9c2): > 79 µM (inactive)

COC(=O)c1ccc(C(c2c(C)n[nH]c2O)c2c(C)n[nH]c2O)cc1
AC50 [1]: 3.35 µM (active) | EC50 (Protein RecA): 1.94 µM (active)

COc1ccc(OCc2cc(C(=O)NC3CCOC(C)(C)C3)no2)c2ccccc12 (configuration not stated)
AC50 [1]: 4.88 µM (active) | EC50 (Protein RecA): 4.57 µM (active)

Cn1c(=O)n(C)c2cc(S(=O)(=O)Nc3cc(Cl)ccc3O)ccc21
IC50 [2]: > 47.1 µM (inactive) | EC50 [3]: > 53 µM (inactive)

CCOC(=O)C1=C(CN2CCN(C(=O)c3ccco3)CC2)NC(=O)NC1c1ccc(OC)cc1 (configuration not stated)
EC50 [4]: > 195 µM (not active)

COC(=O)c1c(NC(=O)/C=C/C(=O)O)sc(C)c1-c1ccc(C)cc1
AC50 [1]: 33.7 µM (active) | EC50 (Protein RecA): 11.1 µM (active)

CC(OC(=O)Cn1[nH]c(=O)c2ccccc2c1=O)C(=O)Nc1ccccc1[N+](=O)[O-] (configuration not stated)
IC50 (H9c2): > 79 µM (inactive)

O=C1NC(=O)c2c(Br)c(Br)c(Br)c(Br)c21
IC50 (H9c2): > 79 µM (inactive)

CCn1cc(C(=O)Nc2cccc(NC(C)=O)c2)c2cc(OC)c(OC)cc2c1=O
IC50 (H9c2): 20.3 µM (active)

COC(=O)c1ccc(CNC(=O)COC(=O)CC23CC4CC(CC(Br)(C4)C2)C3)cc1
IC50 [2]: > 47.1 µM (inactive) | EC50 [3]: > 53 µM (inactive)

O=C(Nc1cccc(F)c1)N1CCC(c2ccccc2)CC1
AC50 [1]: 53.5 µM (active) | EC50 (Protein RecA): > 380 µM (inactive)

COc1ccc(CCNC(=O)c2ccc(N(C)S(=O)(=O)c3ccc(C)cc3)cc2)cc1
EC50 [4]: > 195 µM (not active)

CCN(CC)C(=O)CSc1ncnc2c1cnn2-c1ccccc1
IC50 [2]: > 47.1 µM (inactive) | EC50 [3]: > 53 µM (inactive)

CCc1ccccc1-n1c(SCC(=O)Nc2ccc3c(c2)OCCO3)nc2nncc-2c1O
EC50 [4]: 3.04 µM (active)

O=C(CSc1nccn1Cc1ccco1)Nc1cccc(F)c1
EC50 [4]: > 195 µM (not active)

CCOC(=O)c1c(NC(=O)CCl)sc(C(=O)N(CC)CC)c1C
AC50 [1]: 2.19 µM (active) | EC50 (Protein RecA): 43.6 µM (active)

COc1cc2c(c(OC)c1OC)-c1ccc(SC)c(=O)cc1C(NC(=O)C(F)(F)F)CC2 (configuration not stated)
AC50 (Paired box protein Pax-8): < 0.26 µM (active)

O=C(NCC1CCCN(C2Cc3ccccc3C2)C1)c1cccs1 (configuration not stated)
EC50 [4]: > 195 µM (not active)

CCOC(=O)C1=C(COC(=O)/C=C/c2ccc(F)cc2)NC(=O)NC1C (configuration not stated)
IC50 (H9c2): > 79 µM (inactive)

CCOC(=O)C(Cc1ccccc1)NC(=O)CCc1nnc2ccc(N3CCCC3)nn12 (configuration not stated)
IC50 [2]: > 47.1 µM (inactive) | EC50 [3]: > 53 µM (inactive)

CN(Cc1ccccn1)C(=O)C1CCC(=O)N(Cc2cccc(C(F)(F)F)c2)C1 (configuration not stated)
IC50 [2]: > 47.1 µM (inactive) | EC50 [3]: > 53 µM (inactive)

CCN(CC(=O)Nc1cc(Cl)ccc1C)C(=O)CCc1nc(O)c2ccccc2n1
IC50 (H9c2): > 79 µM (inactive)

CCOC(=O)c1ccc(NC(=S)Nc2ccccc2N)cc1
EC50 [4]: > 195 µM (not active)

CN(C)C(=O)/C=C\c1cn(-c2ccccc2)nc1-c1ccc2c(c1)OCCO2
IC50 (H9c2): > 79 µM (inactive)

COc1cccc(C(c2nnnn2Cc2ccccc2)N2CCC(n3c(O)nc4ccccc43)CC2)c1OC (configuration not stated)
AC50 (Paired box protein Pax-8): 5.5 µM (active)

COc1ccc(-c2cc(NC=O)c3ncc(-c4ccc(C(C)=O)cc4)n3c2)cn1
IC50 (H9c2): > 79 µM (inactive)

Cc1ccc(CN2CC(C(=O)NCCCSc3ccccc3)CC2=O)cc1 (configuration not stated)
IC50 [2]: > 47.1 µM (inactive) | EC50 [3]: > 53 µM (inactive)

COc1cc(-c2cnc3c(NC=O)cc(-c4ccsc4)cn23)cc(OC)c1OC
IC50 (H9c2): > 79 µM (inactive)

COc1cccc(/C=N/NC(=O)c2oc3nc(-c4ccccc4)cc(-c4ccco4)c3c2N)c1
IC50 (H9c2): > 79 µM (inactive)

CCN(CCO)c1ncnc2c1sc1nc(C(C)C)c3c(c12)CC(C)(C)OC3
IC50 (H9c2): > 79 µM (inactive)

NC(=O)c1nsc(C(=O)N(c2ccccc2)C(C(=O)NC2CCCC2)c2ccc3ncccc3c2)c1N (configuration not stated)
IC50 (H9c2): > 79 µM (inactive)

Cc1noc(C)c1COC(=O)COc1ccc2c(C)cc(=O)oc2c1
IC50 (H9c2): 13.5 µM (active)

Cc1ccc(N2C(=O)CC(=O)NC2=O)c(C)c1
IC50 [2]: > 47.1 µM (inactive) | EC50 [3]: > 53 µM (inactive)

CCN=C(S)Nc1cc(OC)c(NC(=O)c2ccco2)cc1OC
IC50 [2]: > 47.1 µM (inactive) | EC50 [3]: > 53 µM (inactive)
